# Source: patent US20250179103A1, “6-OXODECAHYDROPYRROLO[1,2-A][1,5]DIAZOCINE AND 6-OXODECAHYDRO-4H-PYRROLO[2,1-D][1,5]THIAZOCINE DERIVATIVES AS STAT3 AND STAT6 MODULATORS FOR THE TREATMENT OF CANCER AND INFLAMMATORY CONDITIONS” (Recludix Pharma, Inc., priority 2022, published 2025)
# Assays:
# [1] = tested on: pY641-STAT6 in Peripheral Blood Mononuclear Cells (PBMC); experiment: MSD-pSTAT-PBMC Assay (pSTAT6, IL-4 stimulated); type: cell-based, Human; conditions: compound 3 hrs, then 1 ng/mL IL-4 for 10 min
# In short: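 Phospho-STAT readout used MSD electrochemiluminescence with total STAT3 or STAT6 capture in lysates of cryopreserved human PBMCs. Cells had 3 h compound exposure before a 10 min cytokine pulse: IL-6 10 ng/mL for pSTAT3, IL-4 1 ng/mL for pSTAT6. IC50 came from background-subtracted, DMSO-normalised signal, with categories A≤100 nM up to D>3 μM.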
# [2] = tested on: pY705-STAT3 in Peripheral Blood Mononuclear Cells (PBMC); experiment: MSD-pSTAT-PBMC Assay (pSTAT3, IL-6 stimulated); type: cell-based, Human; conditions: compound 3 hrs, then 10 ng/mL IL-6 for 10 min
# Description: Cryopreserved Peripheral Blood Mononuclear Cells (PBMC) are from AllCells. Recombinant Human IL-4 and IL-6 are from Peprotech. Mouse monoclonal anti-STAT3 antibody, rabbit monoclonal anti-pY705-STAT3 antibody, rabbit monoclonal Anti-pY641-STAT6 antibody, and lysis buffer are from Cell Signaling Technology (CST). Mouse monoclonal anti-STAT6 antibody is from BioLegend. Assay plates, blocker, and anti-rabbit secondary antibody are from Meso Scale Discovery (MSD).
# Cryopreserved PBMCs were thawed out and allowed to recover overnight in IMDM+10% heat-inactivated FBS prior to plating 50,000 (STAT3) or 25,000 (STAT6) cells per well in 96-well U-bottom tissue culture plates. Cells were treated with compound for 3 hrs, then stimulated with 10 ng/mL IL-6 (STAT3) or 1 ng/mL IL-4 (STAT6) for 10 min. Cells were then spun down and washed with ice-cold PBS prior to lysing the cell pellet with 1× lysis buffer (CST) with 1×HALT protease and phosphatase inhibitor cocktail (Thermo). Lysates were transferred to and incubated overnight at 4° C. with shaking in QuickPlex 96-well high bind assay plates (MSD) pre-coated overnight with 30 μL per well of 0.6 μg/mL mouse monoclonal anti-STAT3 antibody (STAT3) or 2 μg/mL mouse monoclonal anti-STAT6 antibody (STAT6) in 1×PBS, and pre-blocked for 1 hour with 3% Blocker-A (MSD). Captured protein in the assay plates were then washed and probed with 25 μL per well of 0.25 μg/ml rabbit monoclonal anti-pY705-STAT3 antibody (STAT3) or […] rabbit monoclonal Anti-pY641-STAT6 antibody (STAT6) in 1% Blocker-A for 1 hour at room temperature with shaking, then washed and probed with 25 ul per well of 1 ug/ml Sulfo-TAG Labeled Goat Anti-Rabbit Antibody (MSD) in 1% Blocker-A for 1 hour at room temperature with shaking. Assay plates were then washed and 150 μL of 1× Read Buffer-T (MSD) was added to each well prior to reading on an SQ120 MSD Plate Reader. Assay signal from each sample was subtracted by the signal from unstimulated control wells and normalized to DMSO control wells. IC50 values were calculated using Graph Pad Prism Dose-Response Nonlinear Regression with variable slope. For both pSTAT3 and pSTAT6 A=≤100 nM; B=>100-1000 nM; C=>1000-3000 nM; and D=>3 μM.
smiles,measurement,setting,value
"CC(C)(C)C(=O)OCOP(=O)(OCOC(=O)C(C)(C)C)C(F)(F)c1ccc2sc(C(=O)N[C@H]3CN(CC(F)F)CC[C@H]4CC[C@@H](C(=O)N5C[C@@H](C#N)[C@H](c6ccccc6)C5)N4C3=O)cc2c1 (single isomer, unassigned) [Compound 348, ((((2-(((5S,8S,10aR)-8-((3S,4R or 3R,4S)-3-cyano-4-phenylpyrrolidine-1-carbonyl)-3-(2,2-difluoroethyl)-6-oxodecahydropyrrolo[1,2-a][1,5]diazocin-5-yl)carbamoyl)benzo[b]thiophen-5-yl)difluoromethyl)phosphoryl)bis (oxy)) bis(methylene) bis(2,2-dimethylpropanoate)]",IC50,[1]; Homo sapiens,≤ 0.1 µM
same,IC50,[2]; Homo sapiens,≤ 0.1 µM
"CC(=O)N1CCC2CCC(C(=O)N3CC(c4ccccc4)CC34CC4)N2C(=O)C(NC(=O)c2ccc3ccc(C(F)(F)P(=O)(OCCSC(=O)CC(C)C)OCCSC(=O)CC(C)C)cc3c2)C1 [Compound 1, S,S′-(((((7-(((5S,8S,10aR)-3-acetyl-6-oxo-8-(6-phenyl-4-azaspiro[2.4]heptane-4-carbonyl)decahydropyrrolo[1,2-a][1,5]diazocin-5-yl)carbamoyl)naphthalen-2-yl)difluoromethyl)phosphoryl)bis(oxy))bis(ethane-2,1-diyl)) bis(3-methylbutanethioate)]",IC50,[1],0.1 to 1 µM
same,IC50,[2],> 3 µM
"CNC(=O)C[C@@H](Cc1ccc(OC)cc1)NC(=O)[C@@H]1CC[C@@H]2CCN(C(=O)c3n[nH]c4ccc(C)cc34)C[C@H](NC(=O)c3ccc4ccc(C(F)(F)P(=O)(O)O)cc4c3)C(=O)N21 [Compound 239, (difluoro(7-(((5S,8S,10aR)-8-(((R)-1-(4-methoxyphenyl)-4-(methylamino)-4-oxobutan-2-yl)carbamoyl)-3-(5-methyl-1H-indazole-3-carbonyl)-6-oxodecahydropyrrolo[1,2-a][1,5]diazocin-5-yl)carbamoyl)naphthalen-2-yl)methyl)phosphonic acid]",IC50,[1]; Homo sapiens,0.1 to 1 µM
same,IC50,[2]; Homo sapiens,0.1 to 1 µM
"CCCC(=O)SCCOP(=O)(OCCSC(=O)CCC)C(F)(F)c1ccc2sc(C(=O)N[C@H]3CN(C(C)=O)CC[C@H]4CC[C@@H](C(=O)N(C)c5ccccc5)N4C3=O)cc2c1 [Compound 280, S,S′-(((((2-(((5S,8S, 10aR)-3-acetyl-8-(methyl (phenyl)carbamoyl)-6-oxodecahydro-pyrrolo[1,2-a][1,5]diazocin-5-yl)carbamoyl)benzo[b]thiophen-5-yl)difluoro-methyl)phos-phoryl)bis (oxy))bis (ethane-2,1-diyl))di-butanethioate]",IC50,[1]; Homo sapiens,0.1 to 1 µM
same,IC50,[2]; Homo sapiens,1 to 3 µM
"COCCOC(=O)OCOP(=O)(OCOC(=O)OCCOC)C(F)(F)c1ccc2sc(C(=O)N[C@H]3CN(C(C)=O)CC[C@H]4CC[C@@H](C(=O)N(C)c5ccccc5)N4C3=O)cc2c1 [Compound 283, ((((2-(((5S,8S, 10aR)-3-acetyl-8-(methyl (phenyl)carbamoyl)-6-oxodecahydro-pyrrolo[1,2-a][1,5]diazocin-5-yl)carbamoyl)benzo[b]thiophen-5-yl)difluoro-methyl)phos-phoryl)bis(oxy)) bis(methylene) bis(2-methoxyethyl) bis(carbonate)]",IC50,[1]; Homo sapiens,1 to 3 µM
same,IC50,[2]; Homo sapiens,> 3 µM
"CC(=O)N1CC[C@H]2CC[C@@H](C(=O)N(C)c3ccccc3)N2C(=O)[C@@H](NC(=O)c2cc3cc(C(F)(F)P(=O)(OCOC(=O)OCC(C)C)OCOC(=O)OCC(C)C)ccc3s2)C1 [Compound 284, ((((2-(((5S,8S, 10aR)-3-acetyl-8-(methyl (phenyl)carbamoyl)-6-oxodecahydro-pyrrolo[1,2-a][1,5]diazocin-5-yl)carbamoyl)benzo[b]thiophen-5-yl)difluoro-methyl)phos-phoryl)bis(oxy)) bis(methylene) diisobutyl bis(carbonate)]",IC50,[1]; Homo sapiens,≤ 0.1 µM
same,IC50,[2]; Homo sapiens,0.1 to 1 µM
"CCCOC(=O)OCOP(=O)(OCOC(=O)OCCC)C(F)(F)c1ccc2sc(C(=O)N[C@H]3CN(C(C)=O)CC[C@H]4CC[C@@H](C(=O)N(C)c5ccccc5)N4C3=O)cc2c1 [Compound 286, ((((2-(((5S, 8S,10aR)-3-acetyl-8-(methyl (phenyl)carbamoyl)-6-oxodecahydro-pyrrolo[1,2-a][1,5]diazocin-5-yl)carbamoyl)benzo[b]thiophen-5-yl)difluoro-methyl)phosphoryl)bis(oxy)) bis(methylene) dipropyl bis(carbonate)]",IC50,[1]; Homo sapiens,0.1 to 1 µM
same,IC50,[2]; Homo sapiens,0.1 to 1 µM
"COCC(C)(C)OC(=O)OCOP(=O)(OCOC(=O)OC(C)(C)COC)C(F)(F)c1ccc2sc(C(=O)N[C@H]3CN(C(C)=O)CC[C@H]4CC[C@@H](C(=O)N(C)c5ccccc5)N4C3=O)cc2c1 [Compound 287, ((((2-(((5S, 8S,10aR)-3-acetyl-8-(methyl (phenyl)carbamoyl)-6-oxodecahydro-pyrrolo[1,2-a][1,5]diazocin-5-yl)carbamoyl)benzo[b]thiophen-5-yl)difluoro-methyl)phosphoryl)bis(oxy)) bis(methylene) bis(1-methoxy-2-methylpropan-2-yl) bis(carbonate)]",IC50,[1]; Homo sapiens,> 3 µM
same,IC50,[2]; Homo sapiens,> 3 µM
"COC(=O)[C@@H]1CCCN1C(=O)OCOP(=O)(OCOC(=O)N1CCC[C@H]1C(=O)OC)C(F)(F)c1ccc2sc(C(=O)N[C@H]3CN(C(C)=O)CC[C@H]4CC[C@@H](C(=O)N(C)c5ccccc5)N4C3=O)cc2c1 [Compound 288, O′1,O1-(((((2-(((5S, 8S,10aR)-3-acetyl-8-(methyl (phenyl)carbamoyl)-6-oxodecahydro-pyrrolo[1,2-a][1,5]diazocin-5-yl)carbamoyl)benzo[b]thiophen-5-yl)difluoro-methyl)phos-phoryl)bis(oxy))bis (methylene)) 2,2′-dimethyl (2S,2′S)-bis (pyrrolidine-1,2-dicarboxylate)]",IC50,[1]; Homo sapiens,> 3 µM
same,IC50,[2]; Homo sapiens,> 3 µM
"CC(=O)N1CC[C@H]2CC[C@@H](C(=O)N(C)c3ccccc3)N2C(=O)[C@@H](NC(=O)c2cc3cc(C(F)(F)P(=O)(OCCSC(=O)C(C)(C)C)Oc4ccccc4)ccc3s2)C1 (stereo partly drawn) [Compound 289, S-(2-((((2-(((5S,8S, 10aR)-3-acetyl-8-(methyl (phenyl)carbamoyl)-6-oxodecahydro-pyrrolo[1,2-a][1,5]diazocin-5-yl)carbamoyl)benzo[b]thiophen-5-yl)difluoro-methyl) (phenoxy)phosphoryl)oxy)ethyl)2,2-dimethylpro-panethioate]",IC50,[1]; Homo sapiens,> 3 µM
same,IC50,[2]; Homo sapiens,> 3 µM
"CC(=O)N1CC[C@H]2CC[C@@H](C(=O)N(C)c3ccc4nnccc4c3)N2C(=O)[C@@H](NC(=O)c2cc3cc(C(F)(F)P(=O)(OCOC(=O)C(C)(C)C)OCOC(=O)C(C)(C)C)ccc3s2)C1 [Compound 290, ((((2-(((5S,8S, 10aR)-3-acetyl-8-(cinnolin-6-yl(methyl)carbamoyl)-6-oxodecahydro-pyrrolo[1,2-a][1,5]diazocin-5-yl)carbamoyl)benzo[b]thiophen-5-yl)difluoro-methyl)phos-phoryl)bis(oxy)) bis(methylene) bis(2,2-dimethylpro-panoate)]",IC50,[1]; Homo sapiens,0.1 to 1 µM
same,IC50,[2]; Homo sapiens,1 to 3 µM
"CC(=O)N1CC[C@H]2CC[C@@H](C(=O)N(C)c3ccccc3)N2C(=O)[C@@H](NC(=O)c2cc3cc(C(F)(F)P(=O)(OCCSC(=O)C(C)(C)C)OCCSC(=O)C(C)(C)C)ccc3s2)C1 [Compound 291, S,S′-(((((2-(((5S,8S, 10aR)-3-acetyl-8-(methyl (phenyl)carbamoyl)-6-oxodecahydro-pyrrolo[1,2-a][1,5]diazocin-5-yl)carbamoyl)benzo[b]thiophen-5-yl)difluoro-methyl)phos-phoryl)bis(oxy))bis(ethane-2,1-diyl)) bis(2,2-dimethylpro-panethioate)]",IC50,[1]; Homo sapiens,> 3 µM
same,IC50,[2]; Homo sapiens,> 3 µM
"CCCN(CCC)C(=O)OCOP(=O)(OCOC(=O)N(CCC)CCC)C(F)(F)c1ccc2sc(C(=O)N[C@@H]3CN(C(C)=O)CC[C@@H]4CC[C@H](C(=O)N(C)c5ccccc5)N4C3=O)cc2c1 [Compound 292, ((((2-(((5R,8R, 10aS)-3-acetyl-8-(methyl (phenyl)carbamoyl)-6-oxodecahydro-pyrrolo[1,2-a][1,5]diazocin-5-yl)carbamoyl)benzo[b]thiophen-5-yl)difluoro-methyl)phos-phoryl)bis(oxy)) bis(methylene) bis(dipropyl-carbamate)]",IC50,[1]; Homo sapiens,> 3 µM
same,IC50,[2]; Homo sapiens,> 3 µM
